Where a SMILES comes first, the peptide text is derived from it.
How the values were obtained:
CNV lesions = conditions: mouse, in vivo, ip
Experimental: One week after laser induction, mice with choroidal neovascularization were randomly divided into two groups (10 mice per group), and injected intraperitoneally with 5 mg of FITC-JP1 and 0.99 mg of FITC 100 uL (both groups were injected with equal amounts of FITC intraperitoneally), respectively. The intensity of FITC in the living retina was determined using the FFA method (n=5/group). To evaluate the accumulation of FITC in CNV lesions, mice were euthanized at 1, 3, 8, 24, and 48 h after intraperitoneal injection of FITC-JP1 or FITC, respectively. Then, choroidal spreads were observed by fluorescence microscopy.

[1] = Solubility of the synthesized peptides; format: physicochemical
Experimental: Peptide JP1 and others were synthesized by GL Biochem (Shanghai) Ltd. and Hybio Pharmaceutical Co., Ltd. (Shenzhen, China, under standard GMP conditions. Purity >98%, water-soluble. Freeze dried powder is stored for a long time at −20° C.

[2] = system: streptozotocin (STZ)-induced diabetes mouse model; experiment: Streptozotocin-induced diabetes mouse model: retinal vascular density and leakage; format: in vivo; conditions: STZ diabetic mice, intraocular injection once a week, 4 times; compared to normal mice of the same age
Experimental: C57BL/6 mice (male, 3-5 weeks old) were administered with intraperitoneal injection of streptozotocin (STZ) (7.5 mg/mL; S-0130, Sigma Aldrich, St. Louis, MO, USA), fresh dissolved Na Citrate (CAM) buffer (pH: 4.5-4.7; S4641, Sigma) at a dose of 50 mg/kg, once daily, for 5 consecutive days. After one week, blood sugar ≥300 mg/dL was regarded as the onset of diabetes. Only mice with sustained high sugar for 3 weeks were used for subsequent experiments. […] The blood glucose of mice was measured every month to confirm the status of diabetes. Two months after the onset of diabetes, the mice were randomly divided into four groups with 10 mice in each group. […]
After the mice were anesthetized, 1 mL of PBS containing 40 mg/mL fluorescein isothiocyanate-glucan was perfused into the left ventricle (average mol wt: 2×10^6, Sigma, St Louis, MO, USA). […] Stretched preparation was made, and observe the flat bracket using a fluorescence microscope and take photos. The vascular density of capillary networks was analyzed using Angio Tool image analysis software. […]
Evans blue (45 mg/kg) was injected through the tail vein of mice for more than 10 s. […] Plasma Evans blue concentration was determined by taking 100 uL of blood. […]

Molecule | accumulation of FITC at CNV lesions (retinal choroidal plain films) (CNV lesions) | solubility [1] | retinal vascular density [2]
N=C(N)NCCC[C@H](NC(=O)[C@H](Cc1ccccc1)NC(=O)[C@H](CCCNC(=N)N)NC(=O)[C@H](CC(=O)O)NC(=O)[C@H](COP(=O)(O)O)NC(=O)CNC(=O)[C@@H]1CCCN1C(=O)[C@@H](N)Cc1ccccc1)C(=O)NCC(=O)N[C@@H](CC(=O)O)C(=O)O [JP1] (HELM PEPTIDE1{F.P.G.[O=C([C@H](COP(=O)(O)O)N[*:1])[*:2]].D.R.F.R.G.D}$$$$V2.0; N-terminus and C-terminus assumed) | enhanced the accumulation of FITC at CNV lesions | water-soluble | 
Ranibizumab (antibody, chains of the INN, looked up, V domains shown, Fab, anti-VEGF antibody drug used as positive control) VH: EVQLVESGGGLVQPGGSLRLSCAASGYDFTHYGMNWVRQAPGKGLEWVGWINTYTGEPTYAADFKRRFTFSLDTSKSTAYLQMNSLRAEDTAVYYCAKYPYYYGTSHWYFDVWGQGTLVTVSS VL: DIQLTQSPSSLSASVGDRVTITCSASQDISNYLNWYQQKPGKAPKVLIYFTSSLHSGVPSRFSGSGSGTDFTLTISSLQPEDFATYYCQQYSTVPWTFGQGTKVEIK |  |  | no significant decrease in retinal vascular density
